# Test results taken from ChEMBL document CHEMBL3046894, “Synthesis and Herbicidal Activity of Pyrimidinyl Salicylic and Thiosalicylic Acids” (J Pestic Sci, 1996).
# Calls of active or inactive are those of the source. The rule behind the calls is not given here.
# Key:
# Echinochloa crus-galli [1] = assay: Pre-emergence herbicidal activity against Echinochloa crus-galli (barnyard grass) assessed as mortality at 6.3 g a.i/10 a; format: functional
# Abutilon theophrasti [2] = assay: Post-emergence herbicidal activity against Abutilon theophrasti (velvetleaf) assessed as mortality at 6.3 g a.i/10 a applied 11 days after germination as foliar spray; format: functional; conditions: 264 h
# Gossypium hirsutum [3] = assay: (§1) Pre-emergence phytotoxicity against Gossypium hirsutum (cotton) assessed as mortality at 6.3 g a.i/10 a; format: organism-based; conditions: in vivo, other
# Gossypium hirsutum [4] = assay: Pre-emergence phytotoxicity against Gossypium hirsutum (cotton) assessed as mortality at 1.6 g a.i/10 a; format: organism-based; conditions: in vivo, other
# Glycine max [5] = assay: Pre-emergence phytotoxicity against Glycine max (soybean) assessed as mortality at 1.6 g a.i/10 a; format: organism-based; conditions: in vivo, other
# Glycine max [6] = assay: Pre-emergence phytotoxicity against Glycine max (soybean) assessed as mortality at 6.3 g a.i/10 a; format: organism-based; conditions: in vivo, other
# [7] = (§2) Pre-emergence phytotoxicity against Zea mays (maize) assessed as mortality at 1.6 g a.i/10 a; format: organism-based; conditions: in vivo, 1.6 g a.i/10 a
# Zea mays [8] = assay: Pre-emergence phytotoxicity against Zea mays (maize) assessed as mortality at 6.3 g a.i/10 a; format: organism-based; conditions: in vivo, other
# [9] = (§3) Post-emergence phytotoxicity against Gossypium hirsutum (cotton) assessed as mortality at 1.6 g a.i/10 a applied 11 days after germination as foliar spray; format: organism-based; conditions: in vivo, 1.6 g a.i/10 a
# Gossypium hirsutum [10] = assay: (§4) Post-emergence phytotoxicity against Gossypium hirsutum (cotton) assessed as mortality at 6.3 g a.i/10 a applied 11 days after germination as foliar spray; format: organism-based; conditions: in vivo, other, 264 h
# Glycine max [11] = assay: Post-emergence phytotoxicity against Glycine max (soybean) assessed as mortality at 6.3 g a.i/10 a applied 11 days after germination as foliar spray; format: organism-based; conditions: in vivo, other, 264 h
# Glycine max [12] = assay: Post-emergence phytotoxicity against Glycine max (soybean) assessed as mortality at 1.6 g a.i/10 a applied 11 days after germination as foliar spray; format: organism-based; conditions: in vivo, other, 264 h
# Zea mays [13] = assay: Post-emergence phytotoxicity against Zea mays (maize) assessed as mortality at 1.6 g a.i/10 a applied 11 days after germination as foliar spray; format: organism-based; conditions: in vivo, other, 264 h
# Zea mays [14] = assay: Post-emergence phytotoxicity against Zea mays (maize) assessed as mortality at 6.3 g a.i/10 a applied 11 days after germination as foliar spray; format: organism-based; conditions: in vivo, other, 264 h
# Echinochloa crus-galli [15] = assay: Pre-emergence herbicidal activity against Echinochloa crus-galli (barnyard grass) assessed as mortality at 1.6 g a.i/10 a; format: functional
# Ipomoea lacunosa [16] = assay: Post-emergence herbicidal activity against Ipomoea lacunosa assessed as mortality at 1.6 g a.i/10 a applied 11 days after germination as foliar spray; format: functional; conditions: 264 h
# [17] = as §1; format: organism-based; conditions: in vivo, 6.3 g a.i/10 a
# Gossypium hirsutum [18] = assay: as §3; format: organism-based; conditions: in vivo, other, 264 h
# Xanthium strumarium [19] = assay: Post-emergence herbicidal activity against Xanthium strumarium (cocklebur) assessed as mortality at 1.6 g a.i/10 a applied 11 days after germination as foliar spray; format: functional; conditions: 264 h
# Cyperus iria [20] = assay: Pre-emergence herbicidal activity against Cyperus iria assessed as growth inhibition at 25 g a.i/10 a; format: functional, organism-based
# Chenopodium album [21] = assay: Pre-emergence herbicidal activity against Chenopodium album assessed as growth inhibition at 25 g a.i/10 a; format: functional, organism-based
# Amaranthus retroflexus [22] = assay: Pre-emergence herbicidal activity against Amaranthus retroflexus assessed as growth inhibition at 25 g a.i/10 a; format: functional, organism-based
# Persicaria nodosa [23] = assay: Pre-emergence herbicidal activity against Persicaria nodosa assessed as growth inhibition at 25 g a.i/10 a; format: functional, organism-based
# Digitaria sanguinalis [24] = assay: Pre-emergence herbicidal activity against Digitaria sanguinalis (hairy crabgrass) assessed as growth inhibition at 25 g a.i/10 a; format: functional, organism-based
# Echinochloa crus-galli [25] = assay: Pre-emergence herbicidal activity against Echinochloa crus-galli (barnyard grass) assessed as growth inhibition at 25 g a.i/10 a; format: functional, organism-based
# Cyperus iria [26] = assay: Post-emergence herbicidal activity against Cyperus iria assessed as growth inhibition at 25 g a.i/10 a applied 11 days after germination as foliar spray; format: functional, organism-based
# Chenopodium album [27] = assay: Post-emergence herbicidal activity against Chenopodium album assessed as growth inhibition at 25 g a.i/10 a applied 11 days after germination as foliar spray; format: functional, organism-based
# Amaranthus retroflexus [28] = assay: Post-emergence herbicidal activity against Amaranthus retroflexus assessed as growth inhibition at 25 g a.i/10 a applied 11 days after germination as foliar spray; format: functional, organism-based
# Persicaria nodosa [29] = assay: Post-emergence herbicidal activity against Persicaria nodosa assessed as growth inhibition at 25 g a.i/10 a applied 11 days after germination as foliar spray; format: functional, organism-based
# Digitaria sanguinalis [30] = assay: Post-emergence herbicidal activity against Digitaria sanguinalis (hairy crabgrass) assessed as growth inhibition at 25 g a.i/10 a applied 11 days after germination as foliar spray; format: functional, organism-based
# Echinochloa crus-galli [31] = assay: Post-emergence herbicidal activity against Echinochloa crus-galli (barnyard grass) assessed as growth inhibition at 25 g a.i/10 a applied 11 days after germination as foliar spray; format: functional, organism-based
# Xanthium strumarium [32] = assay: Pre-emergence herbicidal activity against Xanthium strumarium (cocklebur) assessed as mortality at 1.6 g a.i/10 a; format: functional
# Xanthium strumarium [33] = assay: Pre-emergence herbicidal activity against Xanthium strumarium (cocklebur) assessed as mortality at 6.3 g a.i/10 a; format: functional; conditions: Xanthium strumarium, pre-emergence
# Ipomoea lacunosa [34] = assay: Pre-emergence herbicidal activity against Ipomoea lacunosa assessed as mortality at 1.6 g a.i/10 a; format: functional
# Ipomoea lacunosa [35] = assay: Pre-emergence herbicidal activity against Ipomoea lacunosa assessed as mortality at 6.3 g a.i/10 a; format: functional
# Abutilon theophrasti [36] = assay: Pre-emergence herbicidal activity against Abutilon theophrasti (velvetleaf) assessed as mortality at 1.6 g a.i/10 a; format: functional; conditions: Abutilon theophrasti, pre-emergence
# Gossypium hirsutum [37] = assay: Post-emergence phytotoxicity against Gossypium hirsutum (cotton) assessed as mortality per 10 acre; format: organism-based; conditions: in vivo
# Ipomoea lacunosa [38] = assay: Post-emergence herbicidal activity against Ipomoea lacunosa assessed as mortality at 6.3 g a.i/10 a applied 11 days after germination as foliar spray; format: functional; conditions: 264 h
# Zea mays [39] = assay: as §2; format: organism-based; conditions: in vivo, other
# [40] = as §4; format: organism-based; conditions: in vivo, 6.3 g a.i/10 a
# Ipomoea lacunosa [41] = assay: Pre-emergence herbicidal activity against Ipomoea lacunosa assessed as mortality per 10 acre; format: functional
# Persicaria nodosa [42] = assay: Pre-emergence herbicidal activity against Persicaria nodosa assessed as mortality per 10 acre; format: functional
# Amaranthus retroflexus [43] = assay: Pre-emergence herbicidal activity against Amaranthus retroflexus assessed as mortality per 10 acre; format: functional
# Echinochloa crus-galli [44] = assay: Pre-emergence herbicidal activity against Echinochloa crus-galli (barnyard grass) assessed as mortality per 10 acre; format: functional
# Gossypium hirsutum [45] = assay: Pre-emergence phytotoxicity against Gossypium hirsutum (cotton) assessed as mortality per 10 acre; format: organism-based; conditions: in vivo
# Xanthium strumarium [46] = assay: Post-emergence herbicidal activity against Xanthium strumarium (cocklebur) assessed as mortality per 10 acre; format: functional
# Ipomoea lacunosa [47] = assay: Post-emergence herbicidal activity against Ipomoea lacunosa assessed as mortality per 10 acre; format: functional
# Persicaria nodosa [48] = assay: Post-emergence herbicidal activity against Persicaria nodosa assessed as mortality per 10 acre; format: functional
# Amaranthus retroflexus [49] = assay: Post-emergence herbicidal activity against Amaranthus retroflexus assessed as mortality per 10 acre; format: functional
# Echinochloa crus-galli [50] = assay: Post-emergence herbicidal activity against Echinochloa crus-galli (barnyard grass) assessed as mortality per 10 acre; format: functional
# Xanthium strumarium [51] = assay: Pre-emergence herbicidal activity against Xanthium strumarium (cocklebur) assessed as mortality per 10 acre; format: functional
# [52] = Echinochloa crus-galli, pre-emergence
# [53] = Ipomoea lacunosa, pre-emergence
smiles,measurement,setting,value
COc1cc(OC)nc(Sc2cccc(OC)c2C(=O)O)n1,Activity,Echinochloa crus-galli [1],>90%
same,mortality at 63 g/ha,Abutilon theophrasti [2],> 90%
same,Activity,Gossypium hirsutum [3],Non-toxic
same,Activity,Gossypium hirsutum [4],Non-toxic
same,Activity,Glycine max [5],Toxic
same,Activity,Glycine max [6],Toxic
same,mortality,[7]; read-out: Activity,> 90%
same,Activity,Zea mays [8],> 90%
same,mortality at 264 h,[9],< 5%
same,Activity,Gossypium hirsutum [10],Non-toxic
same,Activity,Glycine max [11],Toxic
same,Activity,Glycine max [12],Toxic
same,Activity,Zea mays [13],Toxic
same,Activity,Zea mays [14],Toxic
same,Activity,Echinochloa crus-galli [15],>90%
COc1cc(OC)nc(Oc2cccc([N+](=O)[O-])c2C(=O)O)n1,mortality at 63 g/ha,Echinochloa crus-galli [1]; [52],< 5%
same,mortality at 16 g/ha,Ipomoea lacunosa [16],< 5%
same,mortality,[17]; read-out: mortality,< 5%
same,Activity,Glycine max [5],Non-toxic
same,Activity,Glycine max [6],Non-toxic
same,mortality,[7]; read-out: mortality,< 5%
same,Activity,Zea mays [8],Non-toxic
same,Activity,Gossypium hirsutum [18],Non-toxic
same,Activity,Gossypium hirsutum [10],Non-toxic
same,Activity,Glycine max [12],Toxic
same,Activity,Zea mays [13],Non-toxic
same,Activity,Zea mays [14],Toxic
same,mortality at 16 g/ha,Xanthium strumarium [19],< 5%
same,growth inhibition (GI),Cyperus iria [20],Active
same,growth inhibition (GI),Chenopodium album [21],Active
same,growth inhibition (GI),Amaranthus retroflexus [22],Active
same,growth inhibition (GI),Persicaria nodosa [23],Active
same,growth inhibition (GI),Digitaria sanguinalis [24],inactive
same,growth inhibition (GI),Echinochloa crus-galli [25],inactive
same,growth inhibition (GI),Cyperus iria [26],Active
same,growth inhibition (GI),Chenopodium album [27],Active
same,growth inhibition (GI),Amaranthus retroflexus [28],Active
same,growth inhibition (GI),Persicaria nodosa [29],Active
same,growth inhibition (GI),Digitaria sanguinalis [30],inactive
same,growth inhibition (GI),Echinochloa crus-galli [31],Active
same,mortality at 16 g/ha,"Xanthium strumarium [32]; Xanthium strumarium, pre-emergence",< 5%
same,mortality at 63 g/ha,Xanthium strumarium [33],< 5%
same,mortality at 16 g/ha,Ipomoea lacunosa [34]; [53],< 5%
same,mortality at 63 g/ha,Ipomoea lacunosa [35]; [53],< 5%
same,mortality at 16 g/ha,Abutilon theophrasti [36],< 5%
same,mortality at 16 g/ha,Echinochloa crus-galli [15]; [52],< 5%
COc1cc(OC)nc(Sc2cccc(Cl)c2C(=O)O)n1 [PYRITHIOBAC],ED20,Gossypium hirsutum [37],50 gAi
same,mortality at 63 g/ha,Ipomoea lacunosa [38],> 90%
same,mortality at 63 g/ha,Abutilon theophrasti [2],> 90%
same,mortality,[17]; read-out: Activity,< 50%
same,Activity,Gossypium hirsutum [4],< 50%
same,Activity,Glycine max [5],Non-toxic
same,Activity,Glycine max [6],Non-toxic
same,Activity,Zea mays [39],Toxic
same,Activity,Zea mays [8],Toxic
same,mortality at 264 h,[9],< 5%
same,mortality at 264 h,[40],< 5%
same,Activity,Glycine max [12],Toxic
same,Activity,Zea mays [13],Toxic
same,growth inhibition (GI),Cyperus iria [20],Active
same,growth inhibition (GI),Chenopodium album [21],Active
same,growth inhibition (GI),Amaranthus retroflexus [22],Active
same,growth inhibition (GI),Persicaria nodosa [23],Active
same,growth inhibition (GI),Digitaria sanguinalis [24],Active
same,growth inhibition (GI),Echinochloa crus-galli [25],Active
same,growth inhibition (GI),Cyperus iria [26],Active
same,growth inhibition (GI),Chenopodium album [27],Active
same,growth inhibition (GI),Amaranthus retroflexus [28],Active
same,growth inhibition (GI),Persicaria nodosa [29],Active
same,growth inhibition (GI),Digitaria sanguinalis [30],Active
same,growth inhibition (GI),Echinochloa crus-galli [31],Active
same,ED90,Ipomoea lacunosa [41],25 gAi
same,ED90,Persicaria nodosa [42],inactive
same,ED90,Amaranthus retroflexus [43],1.5 gAi
same,ED90,Echinochloa crus-galli [44],25 gAi
same,ED20,Gossypium hirsutum [45],50 gAi
same,ED90,Xanthium strumarium [46],Active
same,ED90,Ipomoea lacunosa [47],inactive
same,ED90,Persicaria nodosa [48],1.5 gAi
same,ED90,Amaranthus retroflexus [49],1.5 gAi
same,ED90,Echinochloa crus-galli [50],25 gAi
same,Activity,Xanthium strumarium [32],<50%
same,Activity,Ipomoea lacunosa [34],<50%
same,Activity,Ipomoea lacunosa [35],<50%
same,ED90,Xanthium strumarium [51],25 gAi
